Measured values reported in patent publication US20070128217A1 (priority 2003, published 2007).

Experiments:
[1] = tested on: control sera (pooled serum of ten healthy LUMC hospital workers; commercial negative donor pooled serum from the Dutch bloodbank); type: binding, human; design: Binding of Control serum LUMC to linear peptides / Binding of Control serum Blood-bank to linear peptides / Binding of Control serum LUMC to looped peptides / Binding of Control Serum Blood-Bank to Looped peptides / Binding of Control serum LUMC to linear peptides of the protein M of SARS-CoV Urbani / Binding of Control serum Blood-bank to linear peptides of the protein M of SARS-CoV Urbani / Binding of Control serum LUMC to looped peptides of the protein M of SARS-CoV Urbani / Binding of Control Serum Blood-Bank to Looped peptides of the protein M of SARS-CoV Urbani: unit not given here
[2] = tested on: antibodies in sera from SARS patients (sera 1a, 1b, 2, 6, 37, 62, London, SARS-yellow, SARS-green); type: binding, human; design: Binding of serum 6 to linear peptides of protein X1 of SARS-CoV Urbani / Binding of serum 37 to linear peptides of protein X1 of SARS-CoV Urbani / Binding of serum 6 to looped/cyclic peptide (PEPSCAN-ELISA) / Binding of serum 37 to looped/cyclic peptide (PEPSCAN-ELISA) / Binding of serum 37 to looped/cyclic peptides of protein X1 of SARS-CoV Urbani / Binding of serum 6 to linear peptides of protein X2 / Binding of serum 37 to linear peptides of protein X2 / Binding of serum 37 to looped/cyclic peptides of protein X2 of SARS-CoV Urbani / Binding of serum 6 to linear peptides of protein M of SARS-CoV Urbani / Binding of serum 37 to linear peptides of protein M of SARS-CoV Urbani / Binding of serum 6 to looped/cyclic peptides of protein M of SARS-CoV Urbani / Binding of serum 37 to looped/cyclic peptides of protein M of SARS-CoV Urbani / Binding of serum 6 to linear peptides of protein X3 of SARS-CoV Urbani / Binding of serum 37 to linear peptides of protein X3 of SARS-CoV Urbani / Binding of serum 37 to looped/cyclic peptides of protein X3 of SARS-CoV Urbani / Binding of serum 6 to linear peptides of protein X4 of SARS-CoV Urbani / Binding of serum 37 to linear peptides of protein X4 of SARS-CoV Urbani / Binding of serum 37 to looped/cyclic peptides of protein X4 of SARS-CoV Urbani / Binding of serum 6 to linear peptides of protein X5 of SARS-CoV Urbani / Binding of serum 37 to linear peptides of protein X5 of SARS-CoV Urbani / Binding of serum 37 to looped/cyclic peptides of protein X5 of SARS-CoV Urbani / Binding of serum 6 to linear peptides of protein N of SARS-CoV Urbani / Binding of serum 37 to linear peptides of protein N of SARS-CoV Urbani / Binding of serum 6 to linear peptide (PEPSCAN-ELISA) / Binding of serum 1a to looped/cyclic peptides of protein N of SARS-CoV Urbani / Binding of serum 1b to looped/cyclic peptides of protein N of SARS-CoV Urbani / Binding of serum 2 to looped/cyclic peptides of protein N of SARS-CoV Urbani / Binding of serum 6 to looped/cyclic peptides of protein N of SARS-CoV Urbani / Binding of serum 37 to looped/cyclic peptides of protein N of SARS-CoV Urbani / Binding of serum 62 to looped/cyclic peptides of protein N of SARS-CoV Urbani / Binding of serum London to looped/cyclic peptides of protein N of SARS-CoV Urbani / Binding of serum SARS-green to looped/cyclic peptides of protein N of SARS-CoV Urbani: unit not given here
[3] = tested on: rabbit serum obtained by immunizing a rabbit with the SARS-CoV strain Frankfurt 1; type: binding; design: Binding of a rabbit serum to linear peptides / Binding of a rabbit serum to looped peptides / Rabbit serum linear peptides / Rabbit serum looped peptides / Binding of a rabbit serum to linear peptides of protein N of SARS-CoV Urbani (Rabbit serum linear peptides) / Binding of a rabbit serum to looped/cyclic peptides of protein N of SARS-CoV Urbani (Rabbit serum looped peptides): unit not given here
[4] = tested on: recombinant human anti-SARS-CoV antibody 03-018; type: binding; design: Binding of antibody 03-018 to linear peptides of the N protein of SARS-CoV Urbani / Binding of antibody 03-018 to looped/cyclic peptides of the N protein of SARS-CoV Urbani: unit not given here

| Sequence | Binding of Control Serum Blood-Bank to Looped peptides [1] | Binding of Control serum Blood-bank to linear peptides [1] | Binding of Control serum LUMC to linear peptides [1] | Binding of Control serum LUMC to looped peptides [1] | Binding of serum 1a to linear peptide (PEPSCAN-ELISA) [2] | Binding of serum 1a to looped/cyclic peptides of protein N of SARS-CoV Urbani [2] | Binding of serum 1b to linear peptide (PEPSCAN-ELISA) [2] | Binding of serum 1b to looped/cyclic peptides of protein N of SARS-CoV Urbani [2] | Binding of serum 2 to linear peptide (PEPSCAN-ELISA) [2] | Binding of serum 2 to looped/cyclic peptides of protein N of SARS-CoV Urbani [2] | Binding of serum 6 to looped/cyclic peptides of protein N of SARS-CoV Urbani [2] | Binding of serum 37 to looped/cyclic peptides of protein N of SARS-CoV Urbani [2] | Binding of serum 62 to looped/cyclic peptides of protein N of SARS-CoV Urbani [2] | Binding of serum London to looped/cyclic peptides of protein N of SARS-CoV Urbani [2] | Binding of serum SARS-green to looped/cyclic peptides of protein N of SARS-CoV Urbani [2] | Binding of serum SARS-yellow to looped/cyclic peptides of protein N of SARS-CoV Urbani [2] | Binding of antibody 03-018 to linear peptides of the N protein of SARS-CoV Urbani [4] | Binding of antibody 03-018 to looped/cyclic peptides of the N protein of SARS-CoV Urbani [4] | Binding of a rabbit serum to linear peptides of protein N of SARS-CoV Urbani (Rabbit serum linear peptides) [3] | Binding of a rabbit serum to looped/cyclic peptides of protein N of SARS-CoV Urbani (Rabbit serum looped peptides) [3] | other results |
| --- | --- | --- | --- | --- | --- | --- | --- | --- | --- | --- | --- | --- | --- | --- | --- | --- | --- | --- | --- | --- | --- |
| KQYNVTQAFGRRGPE | 0.5 | 0.6 | 0.7 | 0.5 | 0.3 | 0.0 | 0.1 | 0.0 | 0.1 | 0.1 | 0.2 | 0.0 | 0.0 | 0.2 | 0.4 | 0.0 | 0.1 | 0.1 |  |  | Binding of serum 6 to linear peptide (PEPSCAN-ELISA) [2]: 0.2; Binding of serum 37 to linear peptide (PEPSCAN-ELISA) [2]: 0.6; Binding of serum 62 to linear peptide (PEPSCAN-ELISA) [2]: 0.7; Binding of serum London to linear peptide (PEPSCAN-ELISA) [2]: 0.5; Binding of serum SARS-green to linear peptide (PEPSCAN-ELISA) [2]: 0.3; Binding of serum SARS-yellow to linear peptide (PEPSCAN-ELISA) [2]: 0.6; Recognition of the peptide by the rabbit serum [3]: recognized |
| KSAAEASKKPRQKRT | 0.4 | 0.7 | 0.7 | 0.4 |  | 0.2 |  | 0.1 |  | 0.2 | 0.1 | 0.4 | 0.2 | 0.3 | 0.1 | 0.1 | 0.1 | 0.1 | 0.1 | 0.2 | Recognition of the peptide by sera of SARS-CoV infected individuals, and form (linear, looped/cyclic) in which it is recognized [2]: recognized in linear form |
| KTFPPTEPKKDKKKK |  |  |  |  |  | 0.2 |  | 0.1 |  | 0.2 | 0.0 | 0.4 | 0.2 | 0.2 | 0.0 | 0.2 | 0.1 | 0.2 | 0.1 | 0.1 | Control Serum Blood-Bank Looped peptides [1]: 0.3; Control serum Blood-bank linear peptides [1]: 0.6; Control serum LUMC linear peptides [1]: 0.7; Control serum LUMC looped peptides [1]: 0.3; Binding of serum 1a to linear peptides of protein N of SARS-CoV Urbani [2]: 0.2; Binding of serum 1b to linear peptides of protein N of SARS-CoV Urbani [2]: 0.1; Binding of serum 2 to linear peptides of protein N of SARS-CoV Urbani [2]: 0.4; Binding of serum 6 to linear peptides of protein N of SARS-CoV Urbani [2]: 0.2; Binding of serum 37 to linear peptides of protein N of SARS-CoV Urbani [2]: 0.8; Binding of serum 62 to linear peptides of protein N of SARS-CoV Urbani [2]: 0.6; Binding of serum London to linear peptides of protein N of SARS-CoV Urbani [2]: 0.4; Binding of serum SARS-green to linear peptides of protein N of SARS-CoV Urbani [2]: 0.1; Binding of serum SARS-yellow to linear peptides of protein N of SARS-CoV Urbani [2]: 0.8 |
| LDRLNQLESKVSGKG | 0.5 | 1.0 | 0.8 | 0.5 | 0.3 | 0.4 | 0.2 | 0.3 | 0.3 | 0.4 | 0.3 | 0.4 | 0.4 | 0.4 | 0.2 | 0.3 | 0.1 | 0.2 | 0.0 | 0.4 | Binding of serum 6 to linear peptide (PEPSCAN-ELISA) [2]: 0.3; Binding of serum 37 to linear peptide (PEPSCAN-ELISA) [2]: 0.5; Binding of serum 62 to linear peptide (PEPSCAN-ELISA) [2]: 0.6; Binding of serum London to linear peptide (PEPSCAN-ELISA) [2]: 0.5; Binding of serum SARS-green to linear peptide (PEPSCAN-ELISA) [2]: 0.8; Binding of serum SARS-yellow to linear peptide (PEPSCAN-ELISA) [2]: 0.7 |
| LIRQGTDYKHWPQIA | 0.6 | 0.7 | 0.7 | 0.5 |  | 0.4 |  | 0.5 |  | 0.5 | 0.3 | 0.6 | 0.5 | 0.3 | 1.0 | 1.1 | 0.1 | 0.1 | 0.2 | 0.0 | Binding of serum 1a to linear peptides of protein N of SARS-CoV Urbani [2]: 0.3; Binding of serum 1b to linear peptides of protein N of SARS-CoV Urbani [2]: 0.2; Binding of serum 2 to linear peptides of protein N of SARS-CoV Urbani [2]: 0.4; Binding of serum 6 to linear peptides of protein N of SARS-CoV Urbani [2]: 0.2; Binding of serum 37 to linear peptides of protein N of SARS-CoV Urbani [2]: 0.8; Binding of serum 62 to linear peptides of protein N of SARS-CoV Urbani [2]: 0.9; Binding of serum London to linear peptides of protein N of SARS-CoV Urbani [2]: 0.9; Binding of serum SARS-green to linear peptides of protein N of SARS-CoV Urbani [2]: 0.4; Binding of serum SARS-yellow to linear peptides of protein N of SARS-CoV Urbani [2]: 0.6 |
